{
  "source": "patent US20250066423A1",
  "about": "“SESTRIN-MAPK COMPLEX INHIBITORS” (Sentcell Ltd, priority 2021, published 2025)",
  "key": {"H1N1": {"test_system": "H1N1", "experiment": "Autoptic lung analysis and viral clearance (qPCR of viral protein PA) in lungs of old mice", "settings": "mouse, in vivo"}, "sestrin-AMPK interaction": {"molecular_target": "T1, sestrin-AMPK interaction (Homo sapiens, UniProt P58004)", "T1 construct": "endogenous in cells; host or cells: primary CD4+ T cells from PBMCs of healthy donors", "T1 sequence (P58004 1-480)": "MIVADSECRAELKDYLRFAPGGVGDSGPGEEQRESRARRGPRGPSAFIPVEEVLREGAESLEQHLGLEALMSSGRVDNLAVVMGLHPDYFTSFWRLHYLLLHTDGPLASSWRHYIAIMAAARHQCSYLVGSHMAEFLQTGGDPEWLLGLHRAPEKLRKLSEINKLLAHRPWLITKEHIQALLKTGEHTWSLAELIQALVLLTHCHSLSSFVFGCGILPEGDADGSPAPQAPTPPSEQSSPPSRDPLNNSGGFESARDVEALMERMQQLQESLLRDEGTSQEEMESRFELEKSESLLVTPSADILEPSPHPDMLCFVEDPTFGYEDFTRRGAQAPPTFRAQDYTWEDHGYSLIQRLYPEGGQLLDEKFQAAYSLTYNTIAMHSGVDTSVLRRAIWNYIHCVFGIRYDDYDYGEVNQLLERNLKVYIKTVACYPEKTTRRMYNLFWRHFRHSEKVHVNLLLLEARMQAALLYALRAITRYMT", "experiment": "ELISA coupled to sestrin 2 immunoprecipitation", "type": "cell-based", "method": "FIG. 6 illustrates sMAC disruption by DOS46L. (A) CD4+ T cells were purified from PBMCs from healthy donors and treated with DOS46L (10 uM) for the indicated time points. The binding of AMPK to Sestrin 2 was quantified against the total level of Sestrin 2 immunoprecipitated and detected by ELISA. IgG immunoprecipitates served as background control. (B) Cells were pre-treated with proteasome-inhibitor MG-132 (10 uM) for 30 min and subsequently treated with DOS46L (10 uM) for 4 hours. Cells were harvested for immunoblot analysis or proceeded to immunoprecipitation. Levels of Sestrin 2, p38, and AMPK were evaluated by immunoblotting. H3 was used as a loading control. Representative images of 3 experiments are shown. (C) Immunoblot levels of Ubiquitin, Sestrin 2 and Histone 3 in Sestrin 2 immunoprecipitates and their lysates were analysed. Representative images are shown (top). The mean values (bottom) of ubiquitinated proteins in Sestrin 2 immunoprecipitates are shown. Results are presented as a mean±SD of 4 repeated experiments. Student's T-test was used to analyse the data. **p<0.01\n• 1. Cell pellet was lysed with 100 μL of denaturing lysis buffer • 2. Then mixed well by vortexing vigorously for 2-3 sec at maximum speed. • 3. Samples were then boiled at 95° C. for 5 min. • 4. Samples were then diluted 900 μl of non-denaturing lysis buffer and mixed gently. • 5. […]"}, "[1]": {"test_system": "influenza specific antibody titres", "type": "in vivo", "settings": "old mice, single dose along with the vaccine, 2, 4 and 8 weeks after vaccination, versus young mice"}},
  "note": "Peptide text beside a SMILES is read from it.",
  "data": [
    {"smiles": "CC[C@H](C)[C@@H]1NC(=O)[C@H](Cc2ccccc2)NC(=O)[C@H](C)NC(=O)[C@H](C(C)C)NC(=O)[C@@H]2CCCN2C1=O", "note": "[DOS46L] (cyclo(AFIPV))", "values": [
      {"measurement": "lung necrosis", "setting": "H1N1", "result": "protection from lung necrosis"},
      {"measurement": "binding of AMPK to Sestrin 2", "setting": "sestrin-AMPK interaction; CD4+ T cells, 10 uM, 1 or 2 hours of treatment", "result": "decreased"},
      {"measurement": "sestrin-AMPK interaction", "setting": "sestrin-AMPK interaction; compound added directly to the sestrin immunoprecipitates in vitro", "result": "disrupted"},
      {"measurement": "influenza specific antibody titres", "setting": "[1]", "result": "completely restored"}
    ]}
  ]
}
